Assay results taken from paper PMC12081876, “Identification of PTGR2 inhibitors as a new therapeutic strategy for diabetes and obesity” (EMBO Molecular Medicine, 2025).
“And” between values parts separate entries of the source, which are not always exact repeats. Identical values can stand only once.

Assays:
[1] = system: mPPARγ-downstream genes; assay: RT-qPCR of Glut4 and other mPPARγ-downstream genes in differentiated 3T3-L1 adipocytes; assay type: cell-based, mouse
Experimental: (§1) The cell lines, which were tested for mycoplasma contamination and authenticated, were purchased from the Bioresource Collection and Research Center, Taiwan. All cells were cultured at 37 °C, 5% CO2 in a humidified incubator. HEK293T cells were maintained in DMEM (cat. no. SH30003.02, HyClone) supplemented with 10% fetal bovine serum (FBS) (cat. no. 04-001-1A, Biological Industries) and 1% antibiotic/antimycotic solution (cat. no. SV30079.01, HyClone). 3T3-L1 preadipocytes were maintained at ~70% confluence in DMEM with 10% calf serum (cat. no. 16170078, Gibco) and 1% antibiotic/antimycotic solution. For adipocyte differentiation, confluent 3T3-L1 cells (defined as day 0) were exposed to an induction medium containing 10% FBS, 1 μM dexamethasone (cat. no. D4902, Sigma-Aldrich), and 1 μg/ml insulin (Humulin R, Eli Lilly) in DMEM with or without 0.5 mM isobutyl-methylxanthine (cat. no. sc-201188A, Santa Cruz Biotechnology) as indicated. After two days, the medium was replaced with DMEM containing 10% FBS and 1 μg/ml insulin and was replenished every two days until assay.
A total of 1 × 10^5 3T3-L1 preadipocytes were seeded in 6-well plates and differentiated for six days. The 3T3-L1 adipocytes were then harvested in 1 ml of REzol C&T (cat. no. PT-KP200CT, Protech), and total RNA was extracted according to the manufacturer’s instructions with slight modifications. Briefly, 200 μl of chloroform were added to 1 ml of sample in REzol, and samples were vigorously mixed by shaking for 30 s, followed by incubation at room temperature for 5 min. Then, samples were centrifuged at 12,000 × g for 15 min at 4 °C, and 400 μl of the upper aqueous phase were transferred to a new 1.5-ml tube. An equal volume of isopropanol was added. Samples were inverted several times for mixing and then centrifuged at 12,000 × g for 10 min at 4 °C. The RNA precipitate, which formed a pellet at the bottom of the 1.5-ml tube, was washed three times with 75% ethanol and air-dried for 15 min. Pellets were dissolved in RNase-free water. The concentration of RNA was measured using Nanodrop. cDNA was synthesized using a reverse transcription kit (cat. no. K1622, Thermo Scientific) using the oligo(dT)18 primers. RT-qPCR was performed in a 10-μl reaction with 50 ng cDNA and 0.2 μM primer using SYBR green reagent (cat. no. 11203ES08, YEASEN). Mouse peptidylprolyl isomerase A (Ppia) mRNA was used as the internal control. RT-qPCR reactions were performed using ABI 7900HT FAST (Applied Biosystems) and Sequence Detection Systems (SDS v2.3, Applied Biosystems). All qPCR reactions were run in duplicates. The primers used are listed in Appendix Table S3.

[2] = system: PPARγ-null 3T3-L1 clones rescued with wild-type mPPARγ; assay: Insulin-stimulated glucose uptake in PPARγ-null 3T3-L1 clones rescued with wild-type mPPARγ; assay type: cell-based, mouse; conditions: Pio 1; clone #1296 rescued with wild-type mPPARγ
Experimental: (§2) Gene editing was performed in 3T3-L1 preadipocytes using the clustered regularly interspaced short palindromic repeats (CRISPR)/Cas9 system. Two single-guide RNAs (sgRNA) (Appendix Table S5) targeting exon 6 of mouse Pparγ were designed using a web-based design tool (http://crispr.mit.edu/). These oligonucleotides were cloned into the pSurrogate reporter and pAll-Cas9.Ppuro vector obtained from Academia Sinica, Taiwan. The pSurrogate reporter contains an EGFP and an out-of-frame mCherry downstream of the sgRNA; the pAll-Cas9.Ppuro vector expresses Cas9 nuclease and sgRNA. Once a double-strand breaking at the target site in pSurrogate reporter plasmid was created by Cas9, insertions and deletions (indels) could be introduced at the cleaved site. The indels cause frameshifts and result in the expression of the mCherry gene. 3T3-L1 preadipocytes were co-transfected with pSurrogate reporter and pAll-Cas9.Ppuro vectors at 80-90% confluency using PolyJet™ transfection reagent (cat. no. SL100688, SignaGen Laboratories, USA). Two days after transfection, EGFP/mCherry double-positive cells were enriched by fluorescent-activated cell sorting. Single cells were isolated and expanded. The genomic DNA was amplified by PCR and sequenced to confirm the knockout cell lines. The primer sequences are shown in Appendix Table S5.
(§3) The mPPARγ C313A DNA sequence was amplified from pCMV6-Pparg C313A and subcloned into the pLVX-IRES-Neo vector with XhoI/NotI restriction sites. The lentiviral expression plasmids, pMD.G, and pCMVΔR8.91 (RNAi Core, Academia Sinica, Taiwan), were co-transfected into HEK293T cells. […] HSP70 was probed with an anti-HSP70 antibody (cat. no. ab45133, Abcam) as a loading control.
(§4) Differentiated 3T3-L1 cells were starved with serum-free DMEM containing 0.2% BSA (cat. no. A9647, Sigma-Aldrich). […] Uptake of 2DG was terminated by rapidly removing medium and washing with ice-cold PBS three times. Cells were lysed with 0.1% SDS, and the radioactivity was measured using a liquid scintillation counter. Insulin-mediated glucose uptake was calculated by subtracting insulin-treated glucose uptake with basal glucose uptake.

[3] = system: differentiated 3T3-L1 adipocytes; assay: Insulin-stimulated glucose uptake assay by (3H)2-deoxyglucose; assay type: cell-based, mouse; parameters: insulin-stimulated glucose uptake, Fig 1J replicates / Figure 5E raw value, insulin-stimulated glucose uptake (replicates): unit not given here
Experimental: as §1
Differentiated 3T3-L1 cells were starved with serum-free DMEM containing 0.2% BSA (cat. no. A9647, Sigma-Aldrich). Cells were rinsed twice with KRH buffer (137 mM NaCl, 4.7 mM KCl, 1.85 mM CaCl2, 1.3 mM MgSO4, 50 mM HEPES and 0.1% BSA, pH 7.4), and treated with or without […] insulin in the presence of 20 μM cytochalasin B (cat. no. 11328, Cayman Chemical), a GLUT inhibitor for measuring non-specific glucose uptake, for 30 min. Cells were then incubated with 0.5 μCi [^3H]-2-deoxy-D-Glucose (cat. no. NET328A001MC, PerkinElmer) and 0.1 μM 2-deoxy-D-Glucose (2DG) (cat. no. 14325, Cayman Chemical) for 5 min. Uptake of 2DG was terminated by rapidly removing medium and washing with ice-cold PBS three times. Cells were lysed with 0.1% SDS, and the radioactivity was measured using a liquid scintillation counter. Insulin-mediated glucose uptake was calculated by subtracting insulin-treated glucose uptake with basal glucose uptake.

[4] = system: PPARγ-null 3T3-L1 clones rescued with mutant mPPARγ (C313A); assay: Insulin-stimulated glucose uptake in PPARγ-null 3T3-L1 clones rescued with mutant mPPARγ (C313A); assay type: cell-based, mouse; conditions: Pio 1; clone #1296 rescued with mPPARγ C313A
Experimental: as §2, §3, §4

[5] = system: PTGR2; parameters: method as in Toroitich et al, 2021; conditions: ref Toroitich et al, 2021; cited from earlier work
[6] = system: PTGR2; parameters: method as in Toroitich et al, 2021; conditions: ref Toroitich et al, 2021; cited from earlier work; remark: listed apart in the source

CCc1ccc(CCOc2ccc(CC3SC(=O)NC3=O)cc2)nc1 (stereo not shown) [Pio, pioglitazone]
Adipoq RT-qPCR, Fig 1I replicates ([1]; Pio 1μM): 1.437 and 1.615 and 1.7913 | Cepba RT-qPCR, Fig 1H replicates ([1]; Pio 1μM): 2.586 and 1.702 and 2.911 | Acs RT-qPCR, Fig 1G replicates ([1]; Pio 1): 6.866 and 5.338 and 5.547 | Cd36 RT-qPCR, Fig 1F replicates ([1]; Pio 1): 2.685 and 1.765 and 2.147 | Glut4 RT-qPCR, Fig 1C replicates ([1]; Pio 1): 6.074 and 7.473 and 6.277 | Irs2 RT-qPCR, Fig 1D replicates ([1]; Pio 1): 3.5423 and 3.905 and 3.691 | Sorbs1 RT-qPCR, Fig 1E replicates ([1]; Pio 1): 2.4621 and 3.493 and 3.111 | insulin-stimulated glucose uptake, Fig 1P left panel replicates [2]: 4.143 and 3.599 and 3.13 and 3.624 | insulin-stimulated glucose uptake, Fig 1J replicates ([3]; Pio 1): 4.303 and 3.949 and 2.761 and 3.925 | insulin-stimulated glucose uptake, Fig 1P right panel replicates [4]: 4.613 and 5.328 and 5.351 and 7.42

CCCCCC(=O)/C=C/[C@H]1[C@H](O)CC(=O)[C@@H]1C/C=C\CCCC(=O)O [15ketoPGE2]
Figure 5E raw value, insulin-stimulated glucose uptake (replicates) ([3]; 10 uM, DMSO control 2969.5-4461.5): 5153.5 and 5837.5 and 5784.5 and 5754.5

O=C(c1ccc(S(=O)(=O)n2cncn2)cc1)N1CCC(c2ccccc2)CC1 [HHS-0701]
PTGR2 enzymatic activity [5]: inhibit PTGR2 enzymatic activity | intracellular 15-keto-PGE2 concentration [6]: increase intracellular 15-keto-PGE2 concentration dose-dependently
